# Test results as given in publication PMC13462928 (Nature Communications, 2026).
# Molecular target: NUDT5 and the respective E3 ligase (Homo sapiens, UniProt P40337+Q9UKK9)
# Assay: NanoBRET ternary complex formation assay NUDT5 and the respective E3 ligase (VHL or CRBN) in HEK293 cells
# Format: cell-based
# Conditions: HEK293, 20 h, Supplementary Table 1
# Method: NanoBRET ternary complex assays were performed following the manufacturer’s instructions (Promega). […] After 4 h or 20 h of incubation, a mix of substrate in assay medium was added to each well. Donor and acceptor signals were measured in a PHERAstar FSX or FS plate reader and analyzed by GraphPad Prism (v.9 or v.10). The acceptor/donor ratio was calculated, the no ligand background signal was subtracted, and multiplied by 1000 to yield mBRET units. Data were then normalized to DMSO.
# Sequence of NUDT5 and the respective E3 ligase (P40337 whole entry, one chain of several): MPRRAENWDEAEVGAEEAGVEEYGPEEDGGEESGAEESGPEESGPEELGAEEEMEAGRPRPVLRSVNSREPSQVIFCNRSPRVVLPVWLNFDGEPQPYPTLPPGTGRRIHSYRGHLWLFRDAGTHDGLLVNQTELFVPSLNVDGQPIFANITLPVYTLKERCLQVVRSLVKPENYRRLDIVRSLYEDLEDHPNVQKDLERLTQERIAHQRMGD
row,Ternary complex formation below 1 µM (20 h),Compound
1,No,Cc1ncsc1-c1ccc(CNC(=O)C2CC(O)CN2C(=O)C(NC(=O)COCCOCCCCCCC(=O)N2CCC(n3nc(-c4ccc(Oc5ccccc5)cc4)c4c(N)ncnc43)CC2)C(C)(C)C)cc1 (stereo not shown) [ASM74]

# Same assay, conditions: HEK293, 20 h, Supplementary Table 2
row,Ternary complex formation below 1 µM (20 h),Compound
1,No,Cc1ncsc1-c1ccc(CNC(=O)C2CC(O)CN2C(=O)C(NC(=O)COCCOCCCCCCC(=O)N2CCN(c3nc4c(c(=O)n(C)c(=O)n4C)n3Cc3nnc(-c4ccc(Cl)c(Cl)c4)o3)CC2)C(C)(C)C)cc1 (stereo not shown) [ASM076]
2,No,Cn1c(=O)c2c(nc(N3CCN(C(=O)CCCCNC(=O)COc4cccc5c4C(=O)N(C4CCC(=O)NC4=O)C5=O)CC3)n2Cc2nnc(-c3ccc(Cl)c(Cl)c3)o2)n(C)c1=O (stereo not shown) [ASM57]
3,Yes,Cn1c(=O)c2c(nc(N3CCN(C(=O)CCCNc4cccc5c4C(=O)N(C4CCC(=O)NC4=O)C5=O)CC3)n2Cc2nnc(-c3ccc(Cl)c(Cl)c3)o2)n(C)c1=O (stereo not shown) [ASM111]
4,Yes,Cn1c(=O)c2c(nc(N3CCN(C(=O)CCOCCOCCNc4cccc5c4C(=O)N(C4CCC(=O)NC4=O)C5=O)CC3)n2Cc2nnc(-c3ccc(Cl)c(Cl)c3)o2)n(C)c1=O (stereo not shown) [ASM68]
5,Yes,Cn1c(=O)c2c(nc(N3CCN(C(=O)CCCCCCNc4cccc5c4C(=O)N(C4CCC(=O)NC4=O)C5=O)CC3)n2Cc2nnc(-c3ccc(Cl)c(Cl)c3)o2)n(C)c1=O (stereo not shown) [ASM84]

# Same assay, conditions: HEK293, 20 h, Supplementary Table 3
row,Ternary complex formation below 1 µM (20 h),Compound
1,Yes,Cn1c(=O)c2c(nc(N3CCN(CCC4CCN(c5ccc6c(c5)C(=O)N(C5CCC(=O)NC5=O)C6=O)CC4)CC3)n2Cc2nnc(-c3ccc(Cl)c(Cl)c3)o2)n(C)c1=O (stereo not shown) [ASM102]
2,No,Cn1c(=O)c2c(nc(N3CCN(CC4CCN(c5cc6c(cc5F)C(=O)N(C5CCC(=O)NC5=O)C6=O)CC4)CC3)n2Cc2nnc(-c3ccc(Cl)c(Cl)c3)o2)n(C)c1=O (stereo not shown) [ASM71]
3,Yes,Cn1c(=O)c2c(nc(N3CCN(CC4CCN(c5ccc6c(c5)C(=O)N(C5CCC(=O)NC5=O)C6=O)CC4)CC3)n2Cc2nnc(-c3ccc(Cl)c(Cl)c3)o2)n(C)c1=O (stereo not shown) [ASM70]
4,No,Cn1c(=O)c2c(nc(N3CCN(CC4CCN(c5ccc6c(c5)C(=O)N(C5CCC(=O)NC5=O)C6=O)C4)CC3)n2Cc2nnc(-c3ccc(Cl)c(Cl)c3)o2)n(C)c1=O (stereo not shown) [ASM105]
5,No,Cn1c(=O)c2c(nc(N3CCN(CC4CCN(c5cccc6c5C(=O)N(C5CCC(=O)NC5=O)C6=O)CC4)CC3)n2Cc2nnc(-c3ccc(Cl)c(Cl)c3)o2)n(C)c1=O (stereo not shown) [ASM110]

# Molecular target: T1, NUDT5 (Homo sapiens, UniProt Q96SW2+Q9UKK9)
# Assay: Western blot NUDT5 degradation in HEK293 cells
# Format: cell-based
# Conditions: 20 h, Western blot
# Method: (§1) Pellets were lysed on ice using RIPA buffer (25 mM Tris (pH 7.5), 150 mM NaCl, 1% Igepal, 1% SDS, 0.1% SDC, 1x protease inhibitor (Roche, cOmplete mini, 11836170001), 1x phosphatase (Thermo Scientific, Halt, 78429), 0.1% benzonase (Merck, E1014-5KU)), incubated for 15 min and then centrifuged for 20 min at 4 °C at maximum speed in a table-top centrifuge. […] Membranes were blocked with 6% milk in PBS-T for 1 h at RT, washed, and then incubated with primary antibody diluted in PBS-T supplemented with 0.1% NaN3 overnight at 4 °C. Membranes were incubated with fluorophore-conjugated secondary antibodies, Alexa Fluor 680 anti-rabbit IgG (Life Technologies, A21109), Alexa Fluor 750 anti-mouse IgG (Life Technologies, A21037) diluted 1:5000 in 2% milk PBS-T, washed and imaged with an Odyssey imager (Licor).
row,Compound,effect on NUDT5 protein levels
1,Cn1c(=O)c2c(nc(N3CCN(C(=O)CCCNc4cccc5c4C(=O)N(C4CCC(=O)NC4=O)C5=O)CC3)n2Cc2nnc(-c3ccc(Cl)c(Cl)c3)o2)n(C)c1=O (stereo not shown) [ASM111],no significant effects on NUDT5 protein levels

# Test system: HAP1 cell lines
# Assay: TH1760/6-TG cell viability assay in HAP1 cell lines
# Format: cell-based, human
# Conditions: HAP1 WT, 6-TG 1 µM fixed, 72 h
# Method: After 72 h incubation, cell viability was measured using the CellTiter-Glo assay (Promega). Signals were normalized to the control condition.
row,Compound,sensitization of cells towards 6-TG
1,O=C(c1ccc2[nH]ccc2c1)N1CCN(S(=O)(=O)c2ccc3[nH]c(=O)oc3c2)CC1 [TH1760],sensitized HAP1 WT cells towards 6-TG in a dose-dependent manner

# Same assay, conditions: HAP1 cell lines, up to 50 µM, 72 h
row,Compound,effect on cell viability without 6-TG
1,O=C(c1ccc2[nH]ccc2c1)N1CCN(S(=O)(=O)c2ccc3[nH]c(=O)oc3c2)CC1 [TH1760],does not affect HAP1 cell viability

# Test system: HAP1 cells
# Assay: Titration of NUDT5 degraders and controls against fixed 6-TG (2 µg/mL) in HAP1 cells, cell viability
# Format: cell-based, human
# Conditions: HAP1, 2 µg/mL 6-TG, 72 h
# Method: Cells were counted and adjusted to a density of 25,000 cells/mL in culture medium. […] Plates were sealed with breathable film and incubated at 37 °C with 5% CO₂ for 72 hours. Cell viability was assessed using the CellTiter-Glo Luminescent Cell Viability Assay, following the manufacturer’s protocol (Promega). Luminescence was measured using a PHERAstar FS or FSX plate reader, and data were analyzed using GraphPad Prism software (versions 9 or 10). Results were normalized to the vehicle control (DMSO).
row,Compound,rescue of 6-TG-induced toxicity
1,CN1C(=O)CCC(N2C(=O)c3ccc(N4CCN(CC5CCN(C(=O)N6CCN(c7nc8c(c(=O)n(C)c(=O)n8C)n7Cc7nnc(-c8ccc(Cl)c(Cl)c8)o7)CC6)CC5)CC4)cc3C2=O)C1=O (stereo not shown) [dNUDT5nc],failed to rescue cell viability

# Molecular target: T1, NUDT5
# Assay: Western blot NUDT5 degradation in HAP1 cells
# Format: cell-based
# Set-up: endogenous in cells; host or cells: HAP1
# Conditions: HAP1 cells, Western blot, Fig. 3B
# Method: as §1
row,NUDT5 degradation,Compound
1,preventing NUDT5 degradation,CN1C(=O)CCC(N2C(=O)c3ccc(N4CCN(CC5CCN(C(=O)N6CCN(c7nc8c(c(=O)n(C)c(=O)n8C)n7Cc7nnc(-c8ccc(Cl)c(Cl)c8)o7)CC6)CC5)CC4)cc3C2=O)C1=O (stereo not shown) [dNUDT5nc]

# Molecular target: NUDT5 (Homo sapiens, UniProt Q9UKK9)
# Assay: NanoBRET NUDT5 target engagement (TE) assay in HEK293 cells
# Format: cell-based
# Set-up: expressed in transfected cells; host or cells: HEK293
# Conditions: HEK293 cells, Supplementary Fig. 6B; read-out: NUDT5 NanoBRET target engagement EC50
row,EC50,Compound
1,28 nM,CN1C(=O)CCC(N2C(=O)c3ccc(N4CCN(CC5CCN(C(=O)N6CCN(c7nc8c(c(=O)n(C)c(=O)n8C)n7Cc7nnc(-c8ccc(Cl)c(Cl)c8)o7)CC6)CC5)CC4)cc3C2=O)C1=O (stereo not shown) [dNUDT5nc]

# Same assay, conditions: NanoBRET
row,Compound,NUDT5 engagement in live cells
1,CN1C(=O)CCC(N2C(=O)c3ccc(N4CCN(CC5CCN(C(=O)N6CCN(c7nc8c(c(=O)n(C)c(=O)n8C)n7Cc7nnc(-c8ccc(Cl)c(Cl)c8)o7)CC6)CC5)CC4)cc3C2=O)C1=O (stereo not shown) [dNUDT5nc],engaged their cognate target NUDT5 in live cells

# Same assay, conditions: read-out: EC50 (nM) TE (4h); HEK293, 4 h, Supplementary Table 2
row,EC50,Compound
1,2000 nM,Cc1ncsc1-c1ccc(CNC(=O)C2CC(O)CN2C(=O)C(NC(=O)COCCOCCCCCCC(=O)N2CCN(c3nc4c(c(=O)n(C)c(=O)n4C)n3Cc3nnc(-c4ccc(Cl)c(Cl)c4)o3)CC2)C(C)(C)C)cc1 (stereo not shown) [ASM076]

# Same assay, conditions: read-out: EC50 (nM) TE (4h); HEK293, 4 h, Supplementary Table 3
row,EC50,Compound
1,102 nM,Cn1c(=O)c2c(nc(N3CCN(CCC4CCN(c5ccc6c(c5)C(=O)N(C5CCC(=O)NC5=O)C6=O)CC4)CC3)n2Cc2nnc(-c3ccc(Cl)c(Cl)c3)o2)n(C)c1=O (stereo not shown) [ASM102]
2,17 nM,Cn1c(=O)c2c(nc(N3CCN(CC4CCN(c5cc6c(cc5F)C(=O)N(C5CCC(=O)NC5=O)C6=O)CC4)CC3)n2Cc2nnc(-c3ccc(Cl)c(Cl)c3)o2)n(C)c1=O (stereo not shown) [ASM71]
3,42 nM,Cn1c(=O)c2c(nc(N3CCN(CC4CCN(c5ccc6c(c5)C(=O)N(C5CCC(=O)NC5=O)C6=O)CC4)CC3)n2Cc2nnc(-c3ccc(Cl)c(Cl)c3)o2)n(C)c1=O (stereo not shown) [ASM70]
4,103 nM,Cn1c(=O)c2c(nc(N3CCN(CC4CCN(c5ccc6c(c5)C(=O)N(C5CCC(=O)NC5=O)C6=O)C4)CC3)n2Cc2nnc(-c3ccc(Cl)c(Cl)c3)o2)n(C)c1=O (stereo not shown) [ASM105]
5,61 nM,Cn1c(=O)c2c(nc(N3CCN(CC4CCN(c5cccc6c5C(=O)N(C5CCC(=O)NC5=O)C6=O)CC4)CC3)n2Cc2nnc(-c3ccc(Cl)c(Cl)c3)o2)n(C)c1=O (stereo not shown) [ASM110]

# Same assay, conditions: read-out: EC50 (µM), TE 4h; HEK293, 4 h, Supplementary Table 1
row,EC50,Compound
1,> 10000 nM,Cc1ncsc1-c1ccc(CNC(=O)C2CC(O)CN2C(=O)C(NC(=O)COCCOCCCCCCC(=O)N2CCC(n3nc(-c4ccc(Oc5ccccc5)cc4)c4c(N)ncnc43)CC2)C(C)(C)C)cc1 (stereo not shown) [ASM74]
